The values that follow come from patent US20060127432A1, “Surface treatment for wood and wood products” (priority 2002, published 2006).

Marks after values point to notes of the source that are not given here.

The subject of series [1] is Mastotermes darwiniensis. The series can be described thus: Timber protection using standard practice in the timber industry. The class given is in vivo. An excerpt:
(§1) The rates are 5 and 20 g/m3 respectively.

In series [2] the test system is Coptotermes acinaciformis. The series is described as above. The class given is in vivo.
Source text: as §1

Series [3] deals with Mastotermes darwiniensis. As to the kind of experiment: Field drum test (AWPA protocols), treated radiata pine exposed to termites. The class given is in vivo. On the set-up: Mean score: scale not given here. The settings on record: for Mean score / Pass or Fail: radiata pine, field. On the procedure: (§2) The rates required to achieve protection are 4 and 23 g/m3 applied on the surface of 35×90 mm radiata pine for Coptotermes acinaciformis and Mastotermes darwiniensis respectively. These studies were conducted using the drum test described by the AWPA protocols.

Series [4] concerns workers who handled the treated timber. As to the kind of experiment: OH&S testing, handling of treated timber. Format: in vivo. The text has this:
(§3) Until this invention, adequately protecting timber against termite attack required a treatment which provided significant penetration of the sapwood. This was the case due to the fact that other available active ingredients degraded very quickly when exposed to increased temperature and Ultra Violet (UV) light. The penetration was required to protect the active ingredient (“active”) from the degradation. The most common used active in the 1990's which penetrated the timber was Permethrin. […] Thus, when using Permethrin, it was required to penetrate into the timber otherwise the product would degrade and not protect the timber. […] This problem was so severe that it made the use of Deltamethin unviable.
(§4) This increased stability together with the repellent effects of Bifenthrin combined to allow only a superficial treating of the timber where the need for significant penetration is not required.

A further series in a line: Bonding to timber. The settings on record: compared with Permethrin. The class given is physicochemical. The text has this: (§5) These two attributes of bonding & water insolubility, together with the abovementioned stability when exposed to temperature and UV result in the chemical staying on the timber when exposed to rain, sunlight, temperature or handling. No other chemicals used in the past have such characteristics which would allow a mere superficial treatment.

Series [5] deals with Coptotermes acinaciformis. As to the kind of experiment: Field drum test (AWPA protocols), treated radiata pine exposed to termites. Format: in vivo. On the set-up: key to Mean rating: 1: Sound; 2: Superficial attack-grazing; Penetration - >3 mm in depth; 4: Attack Slight −10-25% mass loss; Attack Moderate 25-50% mass loss; 6: Attack Severe 50-70% mass loss; Attack Destroyed 75-100% mass loss. Conditions: for Mean rating / Success (Pass or Fail) / Pass or Fail: radiata pine, field. The protocol:
as §2
Additives can be incorporated during the application of bifenthrin, for example colors, fire retardants, water repellents and resins.
A modification of superficial treatments is the partial introduction of bifenthrin into the wood. The result of this is an envelope around the cross section of the timber board or wood product or just a partial penetration.

The next series can be described thus: Solubility in water. The class given is physicochemical.
Source text: as §5

A short description of series [6]: Degradation on exposure to temperature and UV light. The class given is physicochemical.
Source text: as §3, §4

A further series relates to termites. The series can be described thus: Simulated house frames exposed to 120,000 termites. Format: in vivo. Conditions: superficial treatment, ends not treated; six months of exposure, 120,000 termites. An excerpt:
The ends of the samples were not treated. Simulated frames were exposed to 120,000 termites.

[7] abbreviates: 15 g/m^3, superficial treatment.
Setting [8] is: 23 g/m^3, superficial treatment.
Setting [9] is: 38 g/m^3, superficial treatment.
Where [10] appears, read: applied on the surface of 35×90 mm radiata pine (dipping or spraying).
The mark [11] stands for this setting: 4 g/m^3 + water repellents, superficial treatment.
The mark [12] stands for this setting: 8 g/m^3 + water repellents, superficial treatment.
[13] abbreviates: 15 g/m^3 + water repellents, superficial treatment.
[14] abbreviates: 23 g/m^3 + water repellents, superficial treatment.
[15] abbreviates: Partial penetration more than 3 mm, 6-12 g/m^3.
Setting [16] is: Partial penetration more than 3 mm, 13-20 g/m^3.

Take `Cc1c(COC(=O)[C@@H]2[C@H](/C=C(\Cl)C(F)(F)F)C2(C)C)cccc1-c1ccccc1` (racemic) [Bifenthrin]: the “Rate required to protect timber” value with Mastotermes darwiniensis [1] is 20 g/m3; in series [2], 5 g/m3. The Mean score with Mastotermes darwiniensis [3] (4 g/m^3, superficial treatment) is listed as 3.3; in the series with Mastotermes darwiniensis [3] (8 g/m^3, superficial treatment) it was 2.2; in the series on Mastotermes darwiniensis [3] (setting [7]), 2.0; in the series with Mastotermes darwiniensis [3] (setting [8]) it was 1.7; with Mastotermes darwiniensis [3] (setting [9]) it was 1.0. Besides, the “Pass or Fail” value in the series on Mastotermes darwiniensis [3] (4 g/m^3, superficial treatment) is on record as “Fail”; in the series with Mastotermes darwiniensis [3] (8 g/m^3, superficial treatment), “Fail”; in the series on Mastotermes darwiniensis [3] (setting [7]), “Fail”; in the series with Mastotermes darwiniensis [3] (setting [8]), “Pass”; with Mastotermes darwiniensis [3] (setting [9]), “Pass”. Moreover, the results for the “Rate required to achieve protection” value (with Mastotermes darwiniensis [3] (setting [10]); in series [5] (setting [10])) were 23 g/m3 and 4 g/m3, respectively. Moreover, the “Skin irritation / parasthesia on exposure to treated timber” value in series [4] is “does not produce any skin irritation”. Besides, the Bonding co-efficient result in the series “Bonding to timber” is given as “significantly greater than that of Permethrin”. Also, the Mean rating is 1.2 in [5] (setting [11]); 1.3 in series [5] (setting [12]); 1.2^b in [5] (setting [13]); 1.2 in [5] (setting [14]); 1.0 in series [5] (setting [15]); 1.0 in series [5] (setting [16]). The “Success (Pass or Fail)” value in series [5] (setting [11]), in [5] (setting [12]), in series [5] (setting [13]), in [5] (setting [14]), in series [5] (setting [15]) and in [5] (setting [16]) was “Pass” throughout. For the same compound, in [5] (addition of water repellents), the “Repellent effect with added water repellents” value is “did not mask the repellent effect”. For the same compound, the Solubility in water result in the series “Solubility in water” is given as “virtually insoluble in water”. For the same compound, in [6] (superficially treated timber), the “Degradation through exposure to UV or heat” value is “significant penetration was not required to protect the active against degradation”. In addition, the “Attack of simulated frames” value in the series on termites is on record as “the treated frames were not”.

`CC1(C)[C@H](C(=O)O[C@H](C#N)c2cccc(Oc3ccccc3)c2)[C@@H]1C=C(Br)Br` [Deltamethrin]: in series [4], the “Skin irritation / parasthesia on exposure to treated timber” value is given as “all workers who handled the treated timber complained of a parasthesia or skin irritation”. In [6], the “Resistance to UV light” value is listed as “degrade rapidly when exposed to UV light”.

Take `CC1(C)C(C=C(Cl)Cl)C1C(=O)OCc1cccc(Oc2ccccc2)c1` (stereo not drawn) [permethrin, Permethrin]: the Mean score with Mastotermes darwiniensis [3] (0.02% m/m permethrin (LOSP)) came to 1.8; in the series on Mastotermes darwiniensis [3] (.007% m/m permethrin (LOSP)) it was 2.2; with Mastotermes darwiniensis [3] (.013% m/m permethrin (LOSP)), 2.2. The “Pass or Fail” value with Mastotermes darwiniensis [3] (0.02% m/m permethrin (LOSP)) is “Pass”; in the series with Mastotermes darwiniensis [3] (.007% m/m permethrin (LOSP)), “Fail”; in the series on Mastotermes darwiniensis [3] (.013% m/m permethrin (LOSP)), “Fail”; in series [5] (0.007% m/m OD permethrin) it was “Fail”; in series [5] (0.013% m/m OD permethrin), “Fail”; in [5] (0.02% m/m OD permethrin), “Pass”. Besides, the Mean rating is recorded as 2 in [5] (0.007% m/m OD permethrin), 1.8 in [5] (0.013% m/m OD permethrin) and 1.3 in [5] (0.02% m/m OD permethrin). Further, in series [6], the “Resistance to UV light” value is given as “very low resistance to UV light”. Moreover, in series [6] (heat), the “Degradation on exposure to temperature” value is “degrade when exposed to temperatures above 25 degrees centigrade”.
